In patent US6150414A, “Compositions and methods for treating viral infections” (priority 1992, dated 2000):
Several values for one entry are separate records, joined by “and”; a condition that tells them apart may be missing. Equal values may be shown once. Read-outs that look alike come from different tables or passages of the source.

Assays:
Friend Virus = assay: Friend Virus-induced splenomegaly, WIS compounds (Example 8); assay type: in vivo, mice; design: Actual Spleen Weight / Average Spleen Weight: unit not given here; conditions: for Average % Inhibition / Average Spleen Weight / Actual Spleen Weight: Table VII; for Actual Spleen Weight: single animal
Procedure: The effects of compositions according to the present invention on the increase in spleen size (splenomegaly) of BALB/c mice (Jackson Labs, Bar Harbor, ME) was examined. In these experiments, the virus (10^6 focus forming units--FFU) was inoculated intravenously and 100 micrograms of the compounds indicated in Table II were administered to the mice intraperitoneally 24 hours later. Each compound was administered once to two mice. The animals were sacrificed ten days later and their spleens weighed.
As used in Table II (and subsequent Tables of this Example l(a) and (b), "average percent inhibition" is calculated as follows: [formula] wherein "ASWNC" designates "average spleen weight of negative control"; "ASWE" designates "average spleen weight of experimental (treated) subject"; and "ASWPC" designates "average spleen weight of positive control". Average spleen weight is the numerical average of spleen weights of each experimental group (in Table II each such group includes two members).
The AAB compounds whose synthesis is described above were assayed for antiviral activity. WIS-2, -3, -4, -5 and -6 were tested to determine their biological effects on Friend Virus-induced splenomegaly using the procedure and technique set forth in Example 1 above. The assay results (three mice per group were tested each at different concentrationss of the active composition except for the PBS-negative control wherein two animals per group were used) are reported in Table VII below.

[1] = Stability to light and pH; assay type: physicochemical; conditions: irradiation / exposure to light
[2] = biological target: T1, Radiation Leukemia Virus reverse transcriptase (Radiation murine leukemia virus, UniProt P11227); assay: Radiation Leukemia Virus reverse transcriptase assay, supernatants from infected AQR cells (Examples 4 and 9); assay type: biochemical; conditions: for inhibition at 50 ng / inhibition at 0.0001 mg / inhibition at 0.0005 mg / inhibition at 0.001 mg / inhibition at 0.002 mg / inhibition at 0.005 mg / inhibition at 0.01 mg: 0.5 h; for inhibition at 0.01 mg: read-out: Average % Inhibition; for CPM: replicate
T1 construct: the reverse transcriptase of Radiation Leukemia Virus; endogenous in cells
Procedure: (§1) Supernatants (10 ml/tube) from B10.T(6R) cells (Meruelo et al. J. Exp. Med. 147: 470-487, 1978) chronically infected with Radiation Leukemia Virus (RadLV) were obtained by centrifugation of cells in culture at 4° C., 3500 rpm for 15 minutes. The top 2/3 of the supernatant were removed and aliquots were incubated for 30 minutes on ice with the indicated amounts of hypericin or protohypericin. […] Thereafter, supernatants were centrifuged at 100,000×g using a TI70 rotor (Beckman Instruments) for 1 hour at 4° C. The pellet was […] and analyzed for reverse transcriptase activity as follows.
(§2) The reverse transcriptase assay was performed in a volume of 100 microliters containing the following components:
The antiviral activity of HHA was tested using AQR (Bach and Meruelo, J. Exp. Med. 160:270-285, 1984) cells chronically infected with Radiation Leukemia Virus in the reverse transcriptase assay as described in Example 3 above.
The assays were conducted using the same procedure as in Example 3 above, using supernatants from infected AQR cells.

retroviruses (virions) = assay: Direct inactivation of retroviruses (virions) in vitro (Example 10); assay type: biochemical, Radiation Leukemia Virus; conditions: Table IX
Procedure: as §1, §2
(§3) (1) Direct inactivation of retroviruses in vitro, performed as in Example 3 above;
(§4) The results presented above in Table IX are presented as EC50 concentrations. These are the effective concentrations which inhibit 50% of the viruses in micromolar concentrations.

Friend Leukemia Virus = assay: In vivo inhibition of Friend Leukemia Virus splenomegaly, intravenous 1-2 hours post infection (Example 10); design: species or system mice; conditions: Mus musculus, read-out: EC50 for FV-induced splenomegaly
Procedure: (§5) (3) In vivo inhibition of Friend Leukemia Virus Splenomegaly performed as described in Example 1 above except that the compounds were administered intravenously 1-2 hours post infection.
as §4

retroviruses = assay: Comparison over two in vitro and one in vivo biological assays (Example 10); conditions: Example 10
Procedure: In order to investigate the structural features of hypericin which are essential for antiretroviral activity, numerous analogs and precursors of hypericin were examined for activity in two in vitro and one in vivo biological assay.
as §3, §5

[3] = tested on: virus budding in virus-producing cells; assay: In vitro inhibition of virus budding: production of defective budded virions (Example 10); assay type: cell-based; conditions: in vitro; Table IX; read-out: EC50 for production of defective budded virions
Description: as §4

[4] = biological target: T1, Radiation Leukemia Virus reverse transcriptase; assay: Reverse transcriptase assay of Radiation Leukemia Virus from B10.T(6R) cell supernatants (Example 3); assay type: biochemical; conditions: for Average CPM / CPM / Average percent inhibition: Table V; for CPM: replicate
Procedure: as §1, §2
The reverse transcriptase assay provides a measure of the antiviral activity of the compounds tested by reference to the observed decrease in activity of this enzyme.
In Table V, "CPM" is "counts per minute", "Average" is the numerical average of CPM values within each group of animals.

## O=c1c2ccccc2c2c3c1c(O)cc(O)c3c1c(O)cc(O)c3c(=O)c4ccccc4c2c31 [WIS-2, Tetrahydroxy-dibenzoperylene-dione]
Friend Virus; 1 microgram
  Average % Inhibition: 53.9%
  Average Spleen Weight: 0.7015
  Actual Spleen Weight: 0.6615 and 0.7519 and 0.6912
Friend Virus; 10 micrograms
  Average % Inhibition: 62.7%
  Average Spleen Weight: 0.4701
  Actual Spleen Weight: 0.4263 and 0.4868 and 0.4972
Friend Virus; 50 micrograms
  Average % Inhibition: 64.0%
  Average Spleen Weight: 0.4603
  Actual Spleen Weight: 0.4818 and 0.4925 and 0.4066
Friend Virus; 150 micrograms
  Average % Inhibition: 66.3%
  Average Spleen Weight: 0.4416
  Actual Spleen Weight: 0.4075 and 0.4656 and 0.4517
[1]
  stability to light: did not change upon irradiation
[2]; 0.05 micrograms, Table VIII
  inhibition at 50 ng: 41.6%
[2]; 0.1 micrograms, Table VIII
  inhibition at 0.0001 mg: 70.8%
[2]; 0.5 micrograms, Table VIII
  inhibition at 0.0005 mg: 98.1%
[2]; 1 microgram, Table VIII
  inhibition at 0.001 mg: 98.7%
[2]; 2 micrograms, Table VIII
  inhibition at 0.002 mg: 99.5%
[2]; 5 micrograms, Table VIII
  inhibition at 0.005 mg: 99.5%
[2]; 10 micrograms, Table VIII
  inhibition at 0.01 mg: 99.5%

## O=c1c2c(O)ccc3c4ccc(O)c5c(=O)c6c(O)cc(O)c7c8c(O)cc(O)c1c8c(c23)c(c54)c67 [WIS-3, desmethylhypericin]
Retroviruses (virions)
  EC50: 0.07 µM
Friend Leukemia Virus
  EC50: 174 µM
retroviruses
  activity across assays: high degree of activity in a more than one assay
[3]
  EC50: 2 µM
Friend Virus; 1 microgram
  Average % Inhibition: 24.3%
  Average Spleen Weight: 0.7737
  Actual Spleen Weight: 0.7527 and 0.8048 and 0.7277
Friend Virus; 10 micrograms
  Average % Inhibition: 24.1%
  Average Spleen Weight: 0.7759
  Actual Spleen Weight: 0.7727 and 0.8108 and 0.7413
Friend Virus; 50 micrograms
  Average % Inhibition: 34.7%
  Average Spleen Weight: 0.6921
  Actual Spleen Weight: 0.6998 and 0.6723 and 0.7041
Friend Virus; 150 micrograms
  Average % Inhibition: 79.7%
  Average Spleen Weight: 0.3290
  Actual Spleen Weight: 0.2967 and 0.3518 and 0.3384
Friend Virus; Example 8
  antiviral activity in splenomegaly assay: most active compounds of the group in the splenomegaly assay
[2]; 0.05 micrograms, Table VIII
  Average CPM: 78,424 CPM
  CPM: 89,170 CPM and 67,678 CPM
  inhibition at 50 ng: 90.4%
[2]; 0.1 micrograms, Table VIII
  Average CPM: 20,893 CPM
  CPM: 19,322 CPM and 22,464 CPM
  inhibition at 0.0001 mg: 97.4%
[2]; 0.5 micrograms, Table VIII
  Average CPM: 2,799 CPM
  CPM: 2,630 CPM and 2,968 CPM
  inhibition at 0.0005 mg: 99.7%
[2]; 1 microgram, Table VIII
  Average CPM: 24,606 CPM
  CPM: 21,896 CPM and 27,316 CPM
  inhibition at 0.001 mg: 97%
[2]; 2 micrograms, Table VIII
  Average CPM: 15,467 CPM
  CPM: 14,020 CPM and 16,914 CPM
  inhibition at 0.002 mg: 98.1%
[2]; 5 micrograms, Table VIII
  Average CPM: 76,907 CPM
  CPM: 75,776 CPM and 78,038 CPM
  inhibition at 0.005 mg: 90.6%
[2]; 10 micrograms, Table VIII
  Average CPM: 119,248 CPM
  CPM: 57,512 CPM and 61,736 CPM
[2]
  inhibition at 0.01 mg: 85.4%
[2]; Example 9
  inhibition of RadLV reverse transcriptase activity: highest level of antiviral activity of the compounds that were tested in this assay

## Cc1cc(O)c2c(=O)c3c(O)cc(O)c4c5c(O)cc(O)c6c(=O)c7c(O)cc(C)cc7c(c65)c(c2c1)c34 [protohypericin, Protohypericin]
Retroviruses (virions)
  EC50: 7.9 µM
Friend Leukemia Virus
  EC50: 98 µM
[1]
  stability to light: converts to hypericin upon exposure to light
[4]; 0.05 micrograms
  Average CPM: 309,103 CPM
  CPM: 310,952 CPM and 307,254 CPM
[4]; 0.1 micrograms
  Average CPM: 261,083 CPM
  CPM: 216,824 CPM and 305,342 CPM
[4]; 0.5 micrograms
  Average CPM: 257,879 CPM
  CPM: 264,710 CPM and 251,048 CPM
[4]; 1 microgram
  Average CPM: 227,614 CPM
  CPM: 192,184 CPM and 263,044 CPM
[4]; 5 micrograms
  Average CPM: 12,633 CPM
  Average percent inhibition: 94.0%
  CPM: 12,358 CPM and 12,908 CPM
[4]; 10 micrograms
  Average CPM: 185,539 CPM
  Average percent inhibition: 11.3%
  CPM: 202,656 CPM and 168,422 CPM
[4]; 50 micrograms
  Average CPM: 71,641 CPM
  Average percent inhibition: 65.8%
  CPM: 75,816 CPM and 67,466 CPM
[4]; 100 micrograms
  Average CPM: 10,281 CPM
  Average percent inhibition: 95.1%
  CPM: 8,818 CPM and 11,744 CPM
[4]; Example 3
  inhibition of RadLV reverse transcriptase activity: significantly inhibited the reverse transcriptase activity of RadLV
[4]; RadLV, vs hypericin
  concentration required relative to hypericin for the same degree of RT inhibition: 10 to 100 fold
